Non-standard residues stand in square brackets, D forms with d. Residues, ends and D or L forms follow the SMILES beside them.

For one data set, the system named is NIH-3T3 or HUVEC. As to the kind of experiment: Annexin V/PI apoptosis assay by flow cytometry. Format: cell-based. The note with it: 48 h; DPMD, also pre-incubated with trypsin or chymotrypsin; Figure S14B. The procedure:
and the product's absorbance at […] was dynamically and real-time monitored using a microplate […]
During the chymotrypsin activity assay, DPMD was incorporated into chymotrypsin. The final concentration of chymotrypsin was set at 10 μg/mL, and the final concentration of DPMD was 5 mg/mL. In the corresponding control group, an equal volume of the buffer solution prepared by the kit was added. Subsequently, the enzyme-peptide mixture was added to the reaction system containing the substrate N-Benzoyl-L-Tyrosine Ethyl Ester (BTEE) at a ratio of 1:100 (where the proportion of the enzyme-peptide mixture solution was 1) for the detection of enzyme activity. The reaction was carried out at 25 ℃, and the product's absorbance at 256 nm was dynamically and real-time monitored using a microplate reader. The experimental result was represented by the enzyme reaction's degree of completion. All the tests were repeated three independent times.
NIH-3T3 cells were obtained from the National Collection of Authenticated Cell Cultures. […] Cell viability was evaluated by the CCK-8 assay (Dojindo) at 1-, 3-, 5-, and 7-days post-treatment. […] The absorbance at 450 nm was recorded using a microplate reader […]
was performed using an Annexin V-Alexa Fluor 647/PI kit (Solarbio) according to the manufacturer’ s protocol. […] Samples were analyzed within 1h on a Sony MA900 flow cytometer.
3.12 Animal fluorescence imaging […]

The next data set relates to carboxypeptidase A. As to the kind of experiment: Fluorescence anisotropy specificity test. The following applies: fluorescently labeled DPMD; Figure S3G. Format: binding. The procedure: (§1) To validate the design, DPMD was synthesized using solid‐phase synthesis employing HOBt/HBTU and Fmoc chemistry, following a sequence schematic diagram depicted in Figure 1A. Subsequently, a single reverse column purification by High‐performance liquid chromatography (HPLC) yielded DPMD with purity exceeding 95% at a yield surpassing 60% (Figure S1B, Supporting Information). Circular dichroism (CD) spectra were recorded for a 40 µM DPMD sample in an aqueous solution containing 20% TFE at room temperature. The use of 20% TFE was necessary to obtain a clear spectrum, as it enhances peptide solubility and stabilizes secondary structure.^[ [9] ^] […] To further confirm that DPMD's enzymatic targeting is specific and not a broad‐spectrum protein aggregation effect, we tested DPMD against other pancreatic enzymes and abundant plasma proteins. Fluorescently labeled DPMD was mixed with elastase, pancreatic lipase, α‐amylase, carboxypeptidase A, bovine serum albumin (BSA), and IgG, respectively, and fluorescence anisotropy was measured to detect binding. […] For example, anisotropy values for DPMD + elastase (or lipase, amylase, etc.) remained near the baseline (DPMD‐alone) level, whereas DPMD + trypsin produced a pronounced anisotropy elevation (reflecting peptide‐enzyme complex formation and microaggregate assembly).
(§2) Figure S3. […]
(§3) (D-H) The fluorescent anisotropy
(§4) evaluation of binding affinity between DPMD peptide with elastase (D), lipase (E), amylase(F), carboxypeptidase
(§5) (G), albumin (H) and immunoglobulins (I). […]

A further data set deals with α-amylase. As to the kind of experiment: Fluorescence anisotropy specificity test. It counts as binding. The following applies: fluorescently labeled DPMD; Figure S3F. The procedure:
as §1, §2, §3, §4, §5

For a further data set, the target named is T1, pancreatic lipase (Sus scrofa, UniProt P00591).
T1 construct: purchased Macklin
T1 sequence (P00591 1-450): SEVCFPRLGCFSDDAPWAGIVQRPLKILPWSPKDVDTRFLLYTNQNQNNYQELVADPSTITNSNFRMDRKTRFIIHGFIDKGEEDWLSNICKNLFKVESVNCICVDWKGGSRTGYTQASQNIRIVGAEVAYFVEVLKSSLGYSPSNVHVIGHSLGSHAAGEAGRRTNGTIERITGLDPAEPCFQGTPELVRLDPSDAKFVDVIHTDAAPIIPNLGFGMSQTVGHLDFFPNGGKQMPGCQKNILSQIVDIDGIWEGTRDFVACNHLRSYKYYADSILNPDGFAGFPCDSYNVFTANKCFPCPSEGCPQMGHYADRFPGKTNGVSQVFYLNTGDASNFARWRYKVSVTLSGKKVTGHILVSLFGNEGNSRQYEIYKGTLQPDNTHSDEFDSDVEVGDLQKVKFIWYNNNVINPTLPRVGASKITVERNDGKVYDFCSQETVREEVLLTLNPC
Nature of the data set: Fluorescence anisotropy specificity test. It counts as binding. The note with it: fluorescently labeled DPMD; Figure S3E. The procedure:
as §1, §2, §3, §4, §5

The subject of a further data set is IgG. Nature of the data set: Fluorescence anisotropy specificity test. It counts as binding. The following applies: fluorescently labeled DPMD; Figure S3I. The procedure: as §1, §2, §3, §4, §5

Consider `CC[C@@H](C)[C@@H](NC(=O)[C@@H](CCC(N)=O)NC(=O)[C@H](NC(=O)[C@@H](Cc1ccc(O)cc1)NC(=O)CNC(=O)[C@@H](CC(C)C)NC(=O)[C@H](NC(=O)[C@@H](CO)NC(=O)CNC(=O)[C@@H](C)NC(=O)[C@@H](CC(=O)O)NC(=O)[C@@H](C)NC(=O)[C@@H](CCCNC(=N)N)NC(=O)[C@@H](C)NC(=O)[C@@H](CC(=O)O)NC(=O)[C@@H](C)NC(=O)[C@@H](CCCNC(=N)N)NC(=O)[C@@H](C)NC(=O)[C@@H](CC(=O)O)NC(=O)[C@@H](C)NC(=O)[C@@H](CCCNC(=N)N)NC(=O)[C@@H](C)NC(=O)[C@@H](CC(=O)O)NC(=O)[C@@H](C)NC(=O)[C@H](N)CCCNC(=N)N)C(C)C)[C@H](C)CC)C(=O)N[C@H](CCCNC(=N)N)C(=O)O` [DPMD, Ac‐(D‐RADA)4‐CONH2] (H-[dR][dA][dD][dA][dR][dA][dD][dA][dR][dA][dD][dA][dR][dA][dD][dA]G[dS][dV][dL]G[dY][dI][dQ][dI][dR]-OH; N-terminus and C-terminus assumed), for which, in the data set with NIH-3T3 or HUVEC, the “apoptosis or necrosis (Annexin V/PI)” value was “no increase in apoptosis or necrosis”. In addition, the “anisotropy increase with carboxypeptidase A” value with carboxypeptidase A is recorded as “no significant anisotropy increase”. The “anisotropy increase with α-amylase” value with α-amylase is listed as “no significant anisotropy increase”. For the same compound, the “anisotropy increase with pancreatic lipase” value at pancreatic lipase was “no significant anisotropy increase”. The “anisotropy increase with IgG” value in the data set on IgG is “no significant anisotropy increase”.

For the origin of these results see publication PMC12520456, “Regulating Enzyme Activity via Microaggregates Mediated by Phase Separation” (Advanced Science, 2025).
